According to the NIST ThermoML archive (doi:10.1016/j.fluid.2009.12.009):

Assay: xn = mol fraction of the nth substance listed
Settings: 298.15 K, 101 kPa, Liquid, holographic laser-interferometry using flow junction cell

SMILES	binary diffusion coefficient (x1 = 0.004) [m2/s]	binary diffusion coefficient (x1 = 0.1) [m2/s]	binary diffusion coefficient (x1 = 0.3) [m2/s]	binary diffusion coefficient (x1 = 0.5) [m2/s]	binary diffusion coefficient (x1 = 0.7) [m2/s]	binary diffusion coefficient (x1 = 0.9) [m2/s]	binary diffusion coefficient (x1 = 0.975) [m2/s]	binary diffusion coefficient (x1 = 0.013) [m2/s]	binary diffusion coefficient (x1 = 0.97) [m2/s]	binary diffusion coefficient (x1 = 0.002) [m2/s]	binary diffusion coefficient (x1 = 0.05) [m2/s]	binary diffusion coefficient (x1 = 0.2) [m2/s]	binary diffusion coefficient (x1 = 0.4) [m2/s]	binary diffusion coefficient (x1 = 0.6) [m2/s]	binary diffusion coefficient (x1 = 0.8) [m2/s]	binary diffusion coefficient (x1 = 0.015) [m2/s]	binary diffusion coefficient (x1 = 0.985) [m2/s]	binary diffusion coefficient (x1 = 0.0125) [m2/s]	binary diffusion coefficient (x1 = 0.9915) [m2/s]	binary diffusion coefficient (x1 = 0.9925) [m2/s]
CC(C)=O [acetone] + O	1.25e-09	8e-10	6.3e-10	8.3e-10	1.63e-09	3.44e-09	4.62e-09	–	–	–	–	–	–	–	–	–	–	–	–	–
CCCCCl [1-chlorobutane] + CCCO	–	1.18e-09	1.13e-09	1.09e-09	1.14e-09	1.45e-09	–	1.2e-09	2.51e-09	–	–	–	–	–	–	–	–	–	–	–
CCCO [propan-1-ol] + O	–	1.7e-10	–	–	–	5.3e-10	–	–	–	1.04e-09	5.2e-10	1e-10	1.9e-10	3.3e-10	5e-10	–	–	–	–	–
CC(C)=O [acetone] + CCCO	–	1.22e-09	1.4e-09	1.64e-09	1.98e-09	2.67e-09	–	–	–	–	–	1.33e-09	1.49e-09	1.74e-09	2.4e-09	1.14e-09	3.12e-09	–	–	–
CC(C)=O [acetone] + CCCCO	–	1e-09	1.13e-09	1.38e-09	1.72e-09	2.43e-09	–	–	–	–	–	1.07e-09	1.29e-09	1.49e-09	1.85e-09	–	–	9.5e-10	2.75e-09	2.73e-09
